Laboratory results published in the METLIN SMRT retention time set (Domingo-Almenara et al. 2019).

Test: gradient 5% acetonitrile 3 min, to 50% in 2 min, to 85% in 15 min, held 3 min, 100 µL/min
Settings: column: Zorbax Extend-C18 2.1 x 50 mm; eluents: water / acetonitrile, 0.1% formic acid
Procedure, shortened: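 In both positive and negative ionization mode, a quadrupole time-of-flight mass spectrometer coupled to HPLC analyzed pure standards run in mixtures of ~100 molecules. The Zorbax Extend-C18 column (2.1 × 50 mm, 1.8 μm) was operated at 100 μL/min with water and acetonitrile, each containing 0.1% formic acid. The dead volume was 40 μL and the dwell volume 900 μL. Retention time came from adduct peaks that were computationally picked and individually inspected by hand.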

| SMILES | RP-LC retention time [s] |
| --- | --- |
| Cc1nn(-c2ccccc2)c2ccn(CC(=O)N3CCN(c4ccccc4Cl)CC3)c(=O)c12 | 642 |
| COC(=O)COC(=O)c1cn(-c2cccc(Cl)c2)c(=O)c2ccccc12 | 1010 |
| CCCC1c2nccn2CCCN1C(=O)c1cccn1C (stereo not given) | 599 |
| CCOC(=O)C(=O)NCC1CCC(c2nc3ccccc3n2C)CC1 (stereo not given) | 552 |
| Cc1cccc(NC(=O)Cn2nc3nc(N4CCCC(C)C4)ccn3c2=O)c1 (stereo not given) | 791 |
| CCCN1C(=O)C(C)(C(=O)Nc2ccc(OCC)cc2)Oc2cccnc21 (stereo not given) | 966 |
| COc1cccc(NC(=O)Nc2ccc3c(c2)CCN3S(=O)(=O)c2ccccc2)c1 | 933 |
| CC(NC(=O)CCc1ccc2[nH]ccc2c1)c1ccccc1 (stereo not given) | 812 |
| COCCCNC(=O)c1ccc2c(c1)nc1n2CCCCC1 | 566 |
| CC(C)(NC(=O)c1cccs1)C(=O)N1CCN(c2ccccc2)CC1 | 687 |
| Cn1nccc1C(=O)N1CCC(Cc2nc(C3CC3)n[nH]2)C1 (stereo not given) | 578 |
| O=C(c1ccoc1)N1CCCn2cc(-c3ccccc3F)nc21 | 649 |
| CCCN1C(=O)COc2ccc(-c3noc(-c4cccc(C)c4)n3)cc21 | 1320 |
| Cc1cc(C)cc(NC(=O)Cn2cnc(C)c(C)c2=O)c1 | 710 |
| CCC(C(=O)Nc1c(-c2ccc(OC)cc2)nc2cc(C)ccn12)c1ccccc1 (stereo not given) | 713 |
| CCOC(=O)N1CCC(NC(=O)C2CCCN(c3cc(=O)n(C)c(=O)n3C)C2)CC1 (stereo not given) | 621 |
| CCc1cccc(NC(=O)C2CCCN(c3nnc4ccccn34)C2)c1 (stereo not given) | 734 |
| Cc1cc(C(=O)N2CCN(C(=O)C3CC3c3cccs3)CC2)c(C)o1 (stereo not given) | 767 |
| COc1ccc(-c2noc(Cn3ccn4nc(-c5ccc(C)cc5)cc4c3=O)n2)cc1OC | 986 |
| CCN(Cc1ccccc1)C(=O)C(=O)c1c[nH]c2ccccc12 | 903 |
| Cc1nc(-c2csc(S(=O)(=O)N3CCC(C(=O)N4CCOCC4)CC3)c2)no1 | 719 |
| CC1(O)CCOC2(CCN(Cc3cn[nH]c3-c3ccc(F)cc3)CC2)C1 (stereo not given) | 714 |
| O=C(C1CCN(c2nc3ccc(-c4ccsc4)nc3s2)CC1)N1CCOCC1 | 826 |

| SMILES | RP-LC retention time [s] |
| --- | --- |
| COCCn1cc(CCNC(=O)Nc2cc(C)ccc2C)c2cccnc21 | 752 |
| Cc1ccc(NC(=O)C2CCN(S(C)(=O)=O)c3cc(C)ccc3O2)c(C)c1 (stereo not given) | 945 |
| O=C1CCCC(=O)C1C(=O)c1ccc(C(F)(F)F)cc1[N+](=O)[O-] | 1070 |
| COc1ccc(OCc2nnc3sc(C4COc5ccccc5O4)nn23)cc1 (stereo not given) | 913 |
| O=C(Cn1c(=O)n(C2CCCCC2)c2ncccc21)NCc1cccnc1 | 603 |
| Cc1ccc(C)c(NC(=O)C2CCN(S(=O)(=O)c3cc(-c4noc(C5CC5)n4)cs3)CC2)c1 | 1020 |
| CCc1ccc(NC(=O)c2cccn2Cc2noc(C)n2)cc1 | 910 |
| COc1ccc(Nc2ncc(C(=O)O)c3ccccc23)cc1 | 599 |
| CC(=O)N1CCc2cc(N3CC(C(=O)NC(C)C)CC3=O)ccc21 (stereo not given) | 613 |
| CC(C)Cn1c(=O)c(-c2ccc(C(=O)NCc3cccnc3)cc2)nc2ccccc21 | 693 |
| CC(C)(C)C1CCc2c(sc3nc(CCC(=O)N4CCC(C(N)=O)CC4)[nH]c(=O)c23)C1 (stereo not given) | 779 |
| O=C(Nc1ccc(-c2nnc3n2CCCC3)cc1)C1CCCCC1 | 699 |
| Cc1ccccc1NC(=O)N1CCCC1c1nc(-c2ccc(F)cc2F)no1 (stereo not given) | 932 |
| CCOc1ccccc1NC(=O)NC(C)C(=O)N1CCc2ccccc21 (stereo not given) | 936 |
| O=c1c2nc(-c3ccc4c(c3)OCO4)cn2ccn1-c1cccc(F)c1 | 785 |
| CCN1C(=O)COc2ccc(-c3noc(/C=C/c4ccc(OC)cc4)n3)cc21 | 1130 |
| Cc1ccc2nc(-c3cccc(S(=O)(=O)N4CC(C)OC(C)C4)c3)cn2c1 (stereo not given) | 640 |
| CCCC(=O)Nc1ccc2nc(N3CCN(CC)CC3)cc(C)c2c1 | 560 |
| COC(=O)c1ccc(NC(=O)CN2CC(c3nc(-c4cnccn4)no3)C2)cc1 | 561 |
| Cc1cc(-c2nc(-c3ccc(OC(F)(F)F)cc3)no2)nn1Cc1ccnc(N2CCN(C3CC3)CC2)c1 | 957 |
| COc1ccc(-c2nc(CN(c3ccccc3)S(=O)(=O)c3cccs3)c(C)o2)cc1 | 1130 |
| O=C(O)c1cnc(NCc2ccncc2)nc1-c1ccccc1 | 570 |
| O=c1ccc(-c2ccc3c(c2)OCO3)nn1CCc1nc(-c2cccc(Br)c2)no1 | 1060 |

| SMILES | RP-LC retention time [s] |
| --- | --- |
| O=C(c1cccnc1)N1CCCC(c2n[nH]c(C3CC3)n2)C1 (stereo not given) | 486 |
| COc1cc(C(=O)Nc2nc(-c3ccc(C)cc3)cs2)c(Br)c(OC)c1OC | 1120 |
| CCC(=O)N(C1CCOCC1)C1CCN(S(=O)(=O)c2ccccc2CC)CC1 | 908 |
| Clc1cccc(Cc2nc(-c3ccc4nncn4c3)no2)c1 | 827 |
| CC(C)c1cc(C(=O)Nc2ccc(Cl)cc2)nc2ccnn12 | 1060 |
| CC(C)n1c(=O)c(NCCc2ccc(Cl)cc2)nc2ccncc21 | 727 |
| CCc1nc(OCC(=O)Nc2ccc(Cl)cc2Cl)c2ccccc2n1 | 937 |
| Cc1ccccc1Oc1nccn2c(=O)n(CC(=O)Nc3ccc(F)cc3)nc12 | 838 |
| O=C(NCCc1ccco1)c1nc(Nc2ccc(F)cc2)c2ccccc2n1 | 784 |
| O=C(c1csc(-c2ccc(N3CCCC3)nc2)n1)N1CCCCC1 | 613 |
| Fc1ccccc1N1CCN(Cc2nc(-c3ccc(N4CCCCC4)nc3)no2)CC1 | 972 |
| O=C(NCC1CC1)c1c(-c2ccccc2)cc(=O)n2c1CCC2 | 660 |
| CCN1CCN(C(=O)C2CCN(S(=O)(=O)c3ccc4c(c3)sc(=O)n4C)CC2)CC1 | 551 |
| COc1ccccc1NC(=O)C1CCN(S(=O)(=O)c2cc(-c3noc(C)n3)cs2)CC1 | 918 |
| Cc1ccc(CC(=O)N(CCS(=O)(=O)N2CCNCC2)CC2CCCO2)cc1 (stereo not given) | 645 |
| COc1ccc(-c2nc(CCS(=O)(=O)c3ccc(C)cc3)no2)cc1OC | 904 |
| CCN(CC)CCCC(C)Nc1nc(C)nc2cc(Cl)ccc12 (stereo not given) | 769 |
| O=C1CCCCC(Cc2cccnc2)(C(=O)NCc2ccc3c(c2)OCO3)N1 (stereo not given) | 591 |
| CN(CCc1noc(-c2ccc(C(=O)NCCCN3CCCC3)cc2)n1)C(=O)c1ccc(F)cc1 | 623 |
| Cc1cc2[nH]c(C(=O)Nc3cccc(F)c3C)c(CN3CCOCC3)c2s1 | 731 |
| COc1ccc(N2CC(c3noc(-c4cc(F)ccc4F)n3)CC2=O)cc1 (stereo not given) | 849 |
| COc1ccc(CNC(=O)c2ccc3c(c2)nc2n3CCN(C(C)C)C2=O)c(OC)c1 | 708 |
| CC1CCN(S(=O)(=O)c2ccc3c(c2)CCCC(=O)N3CC(=O)NC2CCCCC2)CC1 | 987 |

| SMILES | RP-LC retention time [s] |
| --- | --- |
| O=C(NCC1CCN(S(=O)(=O)C2CC2)CC1)c1cc(=O)c2ccccc2o1 | 674 |
| CCN1C(=O)C(CC(=O)NCCC(C)C)Sc2ncccc21 (stereo not given) | 738 |
| CCc1ccccc1NC(=O)N1CC(n2cc(COCC3CC3)nn2)C1 | 725 |
| O=C(c1cc(-c2ccncc2)n[nH]1)N1CCN(C(=O)c2cc3ccccc3[nH]2)CC1 | 598 |
| Cc1noc2nc(CCC(=O)NC(C)c3ccccc3)nc(N3CCCC3)c12 (stereo not given) | 790 |
| Cc1ccccc1NC(=O)N1CCCN(c2ccc(=O)n(-c3ccccc3)n2)CC1 | 720 |
| CCOC(=O)CC1(NC(=O)Nc2ccc3nc(C)cc(OC)c3c2)CCCCC1 | 689 |
| Cc1cc(-n2c(C)nc3ccccc3c2=O)ccc1NC(=O)C(C)Oc1ccccc1 (stereo not given) | 876 |
| O=C(CCc1nc(CSc2nnc(-c3ccccc3)o2)no1)Nc1ccc(F)c(Cl)c1 | 973 |
| Cc1csc(-c2csc(S(=O)(=O)N3CCN(c4cccc(C)c4C)CC3)c2)n1 | 1310 |
| COc1cc(NS(=O)(=O)c2cc(-c3cnn4c(C)cc(C)nc34)ccc2OC)cc(OC)c1 | 949 |
| Cc1ccc(NC(=O)C2CC(=O)N(c3ccc4oc(C)nc4c3)C2)cc1 (stereo not given) | 749 |
| COc1ccc(C(=O)Nc2c(C(=O)Nc3ccccc3OC)oc3cccnc23)cc1 | 783 |
| N#CCc1nc(-c2cc3ccccc3o2)cs1 | 860 |
| Cc1noc(C2CN(C(=O)c3ccc(C#N)cc3)CC23CCOCC3)n1 (stereo not given) | 642 |
| CC(C)(C)NC(=O)c1ccc2c(c1)CCCN2S(=O)(=O)c1ccccc1 | 979 |
| Cc1cccc(NC(=O)N2[C@H]3CC[C@@H]2c2cncnc2C3)c1 | 674 |
| CCOc1ccccc1-c1noc(Cn2c(=O)n(Cc3ccc(OC)cc3)c(=O)c3sccc32)n1 | 1080 |
| CC(C)NC(=O)c1ccc(OCC2CCN(C(=O)C3CCCO3)CC2)cc1 (stereo not given) | 697 |
| COc1ccc(NC(=O)CSc2nc3ccccc3nc2C)cc1 | 802 |
| Cc1sc(NC(=O)c2ccc(COc3ccc(F)cc3)o2)nc1-c1ccccc1 | 1180 |
